No end group written: not given here.
What was measured:
Thrombin = biological target: T1, Thrombin (Homo sapiens, UniProt P00734); assay: 30-mer library counter-screening MSP-MS, Thrombin; format: biochemical
T1 construct: purchased R&D Systems (Bio-techne) 2196-SE-200
Method: (§1) Protease specificity screening was performed using Multiplexed Substrate Profiling by Mass Spectrometry (MSP-MS), the method described in, e.g. O'Donoghue A. J. et al., Nat Methods., 2012; 9(11): 1095-1100. This method employs a physico-chemically diverse peptide library as substrates for proteases, and reactions are monitored over time with mass spectrometric detection of cleaved products. The resulting cleavages are assessed for specific cleavage in the enzyme-treated sample by comparison with results from a no-enzyme control incubation.
(§2) Enzymes were activated and assayed following the manufacturer's recommendations.
Thrombin was activated following the manufacturer's recommended conditions by pre-incubation with the enzyme with thermolysin for 15 min, and then the thermolysin was quenched with 1,10 phenanthroline treatment. Activated thrombin was assayed at 1.2 nM in activation buffer: 50 mM TRIS HCl, 10 mM CaCl2, 150 mM NaCl, 0.05% (w/v) Brij-35, pH 7.5.
(§3) Counter-screening was performed against the enzymes Thrombin, Factor Xa and Hepsin using this library as well, and for calibration of activity, a positive-control peptide bearing favorable motifs for these enzymes was also designed (ALU30-19).
(§4) Catalytic efficiency (kcat/KM) estimations were used to rank the top cleaved substrates in the MSP-MS reaction. Peptides were quantified by mass spectrometric label-free quantitation from the MS1 precursor ion peak areas for each peptide. Enzyme progress curves were modeled from six-time point measurements in GraphPad Prism. Data were fitted using non-linear least squares fitting to the first order kinetics equation:
(§5) [formula] where Y=percent product formation or substrate consumption, and t=time. The observed rate is a function of the enzyme concentration [E0], and an observed catalytic efficiency (kcat/KM) in units M^−1s^−1
(§6) Counter-screening with Thrombin, Factor Xa and Hepsin was also performed following the same analysis. The library peptide Alu30-19 was designed to include authentic sites for each enzyme, for comparison of overall cleavage efficiency as well as cleavage site specificity within each motif. The substrate designed for Factor Xa has the motif FNPR|TFGS (SEQ ID NO: 248), derived from the Factor Xa cleavage site in Thrombin. The substrate motif for Thrombin was FPR|, a common tool substrate motif. The substrate motif for hepsin was RKRR|GSRG (SEQ ID NO: 249) from filaggrin.

Hepsin = biological target: T2, Hepsin (Homo sapiens, UniProt P05981); assay: 30-mer library counter-screening MSP-MS, Hepsin; format: biochemical
T2 construct: purchased R&D Systems (Bio-techne) 4776-SE
Method: as §1, §2
Hepsin was pre-activated overnight at 37° C. in the manufacturer recommended buffer: 100 mM TRIS, 10 mM CaCl2, 150 mM NaCl, 0.05% Brij-35, pH 8.0. Activity was measured with 2.4 or 24 nM enzyme in the buffer: 50 mM TRIS HCl at pH 7.4.
as §3, §4, §5, §6

CTSL1 [1] = biological target: T3, CTSL1 (Homo sapiens, UniProt P07711); assay: 30-mer tandem linker library MSP-MS, CTSL1; format: biochemical
Method: as §1, §2
(§7) For CTSL1, enzyme was activated by pre-incubation in assay buffer (50 mM MES, 5 mM DTT, 1 mM EDTA, pH=6) for 15 min. MSP-MS reactions were then started with the mixing of enzyme and substrate, at final CTSL1 concentration of 0.04 ng/μl (0.77 nM), and peptide substrate concentration at 500 nM.
This hypothesis was tested in the context of the hybrid linker design experiment. Shown in FIG. 46 are the results of cleavage of two matched 30-mer peptides with the following sequences:
(§8) To analyze the catalytic efficiency of candidate tandem linker designs, a tailored library approach using MSP-MS was applied. For the tailored library, a set of nineteen synthetic peptides, 30 amino acids in length (30-mers), were designed to test whether sequence context affects the efficiency of cleavage. Peptides were assayed in a multiplex format together as a substrate library with individual recombinant enzymes, using MSP-MS. For quantitative comparisons, kinetic analysis was performed over a time course, and results are reported either as a catalytic efficiency kcat/KM for well-behaved first-order kinetics, or as observed rates as kobs for more complex kinetic behavior.
as §4, §5

[2] = system: cell lysates of MC38, CT26, CT26-MMP9+ and myofibroblast cell lines; assay: FRET assay of cell lysates (cell-associated activity); format: biochemical, mouse; details: for Cleavage activity detected in cell lysates: four cell lines
Source text: (§9) Conditioned media and cell lysate samples were received from Charles River Laboratories for the murine colon cancer cell lines: MC38 (epithelial), CT26 (fibroblast), and CT26 transduced with a lentivirus for doxycyclin-inducible expression of MMP9 (CT26 pLVX MMP9-5T4+dox). An immortalized mouse intestinal myofibroblast cell line (ABM Good #T0565) was used as a control stromal cell line, grown under manufacturer recommended conditions. Conditioned media and cell lysate samples were also received for screening purposes from ABM Good for the immortalized mouse colonic epithelial cell line YAMC (ABM Good #T0567).
(§10) Conditioned media samples were prepared according to the standard protocol using logarithmic phase cells. Briefly, cells were grown for 16h in either serum-free media or in complete media containing 10% fetal bovine serum (FBS). After conditioned media collection, the adherent cells were washed then lysed on plate with non-denaturing lysis buffer to produce a lysed “cell pellet” to capture any activity that remained associated with the cells. All cell culture-derived conditioned media samples, cell lysates from Charles River Laboratories, and cell lysates derived internally were processed with identical methods, to allow comparison between samples.
To test for cell pellet-associated FAPa activity, the cell lysates were clarified by ultracentrifugation and then assayed neat in the FRET assay. […] A modest 2-fold greater activity was detected in the three tumor cell lines over the myofibroblast cell line. For comparison, CTSL1 activity was also tested in the cell lysates. CTSL1 is a lysosomal enzyme; therefore, activity toward CTSL1_1 was expected to be similarly abundant in all four cell lines. The ratio of CTSL1_1 cleavage in tumor vs control cell lines in this screening format was ˜1× (grey bars, left-hand bar of each pair, FIG. 41). FAPα (fibroblast activating protein-alpha) is a marker for fibroblast (CT26) and myofibroblast cell lines.

[3] = system: conditioned media from tumor, myofibroblast and YAMC cell lines; assay: FRET steady-state kinetics of conditioned media (enzyme equivalents); format: biochemical, mouse; details: for Secreted activity in conditioned media, steady-state kinetics: tumor cell lines
Source text: as §9
(§11) In the end-point screening assays, a fixed titer of 10× concentrated sample and a substrate concentration of 10 μM was used. Values reported in the end-point experiments are initial velocity measurements, in relative fluorescence units (RFU) per second. End-point measurements are a starting point for a screen, but the rate of the reaction is non-linearly related to substrate concentration. Therefore, a more accurate representation of activity would be given by steady-state kinetic measurements covering a range of substrate concentrations. To compare activity across cell lines, the data were treated with a Michaelis-Menten model, and the concentration of equivalent enzyme units [E0] was solved.
Accordingly, initial velocity was measured as a function of substrate concentration, using a 2-fold dilution series from 250 to 1 μM. Data were fitted using non-linear least squares fitting with GraphPad Prism software v 8.0 to the Michaelis-Menten equation:
[formula] where kcat is the rate of product formation under steady-state conditions in units (s^−1), and KM is the Michaelis constant that gives the substrate concentration in molar units (M) at which half maximum velocity of the reaction is produced for a given enzyme, [E0] is the enzyme concentration, and [S] the substrate concentration in (M).
In the assays where purified recombinant enzyme is used, the Michaelis-Menten parameters are as classically defined above. For conditioned media samples, the effective titer of conditioned media per assay was adjusted to approximately a 2× concentrate of the original unprocessed media samples to assure that the detection range matched the signal produced. The enzyme component in the calculation is redefined as a mixture of possible proteases that contribute to the cumulative observed activity, each with intrinsic reactivity toward a substrate. In this case, it is more appropriate to consider kcat and KM as macroscopic constants that represent the overall efficiency of catalysis, and E0 is an enzyme equivalent, expressed in units of concentration. To solve the data fit, kcat/KM can be fixed at that of the recombinant enzyme and enzyme equivalents per cell culture volume can be output. The effective titer of enzyme equivalents in this case can be used to compare the activity produced by the different cell lines.
An immortalized mouse colonic epithelial cell line (YAMC) was used to test activity in the presence of additional control “normal” epithelial cells. YAMC's are given the calculated enzyme equivalents (nM) resulting from all of these steady state experiments, to allow for comparison of the amount of equivalent activity per sample. For example, the YAMC control epithelial cell line produced activity with the ADAM17_2 substrate equivalent to that of 0.52±0.03 nM of ADAM17 recombinant enzyme. This cell line compares directly to MC38, also of epithelial origin, which had activity equivalent to that of 0.32±0.03 nM of ADAM17 recombinant enzyme. […] This cell line required non-standard cell culture conditions, including growth with murine IFNγ, and at low temperature to maintain, and may not be fully representative of epithelial cell lines.

[4] = system: conditioned media from MC38, CT26, CT26 pLVX MMP9-5T4+dox and myofibroblast cell lines; assay: FRET end-point screen of conditioned media; format: biochemical, mouse; details: conditioned media
Source text: Proteolytic activity was screened in the conditioned media samples by fluorescent resonance energy transfer (FRET) assays with the substrates listed in Table 10.
as §9, §10
The resulting conditioned media was buffer exchanged with PBS and concentrated to 10× the original titer as a stock solution.
FBS background controls were therefore used for baseline subtraction at each concentration of substrate throughout the FRET experiments.
as §11

CTSL1 [5] = biological target: T3, CTSL1; assay: In vitro FRET kinetics with CTSL1; format: biochemical; details: 8-mer FRET peptide, Mca/Dnp pair
Method: as §2, §7
Additional in vitro kinetic experiments were performed to characterize a new candidate motif for CTSL1 enzyme; the CTSL1_2 motif has the sequence […] (SEQ ID NO: 199). […] Yet, initial experiments with the CTSL1_2 FRET substrate were inconclusive, possibly due to artifacts in the FRET assay; therefore, a new FRET peptide construct was designed with the 9-mer sequence […] (SEQ ID NO: 236).
All of the FRET substrates used in these studies have a methoxycoumarin (Mca) fluorophore and dinitrophenyl-lysyl (Dnp) quencher pair at the N- and C-termini of the sequences, respectively.

FAPα = biological target: T4, FAPα (Homo sapiens, UniProt Q12884); assay: 30-mer tandem linker library MSP-MS, FAPα; format: biochemical; details: at PGGP|AGIG and GP|AGLYAQ respectively
T4 construct: purchased R&D Systems (Bio-techne) 930-ADB-010
T4 sequence (Q12884 1-760): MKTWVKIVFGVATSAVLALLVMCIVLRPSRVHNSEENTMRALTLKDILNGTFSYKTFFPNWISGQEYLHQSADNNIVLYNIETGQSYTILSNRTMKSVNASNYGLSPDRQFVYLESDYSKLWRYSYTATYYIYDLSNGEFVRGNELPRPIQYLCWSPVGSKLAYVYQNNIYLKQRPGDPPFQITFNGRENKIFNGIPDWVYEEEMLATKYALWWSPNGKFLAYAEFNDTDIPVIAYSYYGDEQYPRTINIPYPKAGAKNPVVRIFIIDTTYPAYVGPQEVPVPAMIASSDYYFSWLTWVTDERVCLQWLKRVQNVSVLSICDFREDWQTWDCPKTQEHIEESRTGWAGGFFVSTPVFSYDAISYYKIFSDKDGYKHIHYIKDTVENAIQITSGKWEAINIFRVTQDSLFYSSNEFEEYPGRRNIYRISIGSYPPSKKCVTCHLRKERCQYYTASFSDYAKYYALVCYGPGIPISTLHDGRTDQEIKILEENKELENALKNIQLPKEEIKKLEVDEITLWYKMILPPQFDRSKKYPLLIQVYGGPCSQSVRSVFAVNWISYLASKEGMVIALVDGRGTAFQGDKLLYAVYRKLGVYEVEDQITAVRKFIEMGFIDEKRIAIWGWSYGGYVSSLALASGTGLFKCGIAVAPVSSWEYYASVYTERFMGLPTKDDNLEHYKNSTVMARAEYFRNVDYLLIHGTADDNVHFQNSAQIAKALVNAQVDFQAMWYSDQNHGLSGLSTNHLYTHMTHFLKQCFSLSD
Method: as §1, §2
FAPα activity was tested with fluorescence detection using a generic Z-GP-AMC substrate. For FRET assays, the final enzyme concentration was 5 nM and the buffer was 50 mM TRIS HCl, 1 M NaCl, 1 mg/mL BSA, pH 7.5.
as §8, §4, §5

T3 sequence (P07711 114-333): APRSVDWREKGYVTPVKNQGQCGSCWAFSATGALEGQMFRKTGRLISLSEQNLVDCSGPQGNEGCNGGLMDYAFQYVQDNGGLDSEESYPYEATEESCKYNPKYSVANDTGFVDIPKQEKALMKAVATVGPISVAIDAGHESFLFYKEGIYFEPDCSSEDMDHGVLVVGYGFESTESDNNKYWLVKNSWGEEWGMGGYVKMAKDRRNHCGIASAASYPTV
T2 sequence (P05981 163-417 limits assumed): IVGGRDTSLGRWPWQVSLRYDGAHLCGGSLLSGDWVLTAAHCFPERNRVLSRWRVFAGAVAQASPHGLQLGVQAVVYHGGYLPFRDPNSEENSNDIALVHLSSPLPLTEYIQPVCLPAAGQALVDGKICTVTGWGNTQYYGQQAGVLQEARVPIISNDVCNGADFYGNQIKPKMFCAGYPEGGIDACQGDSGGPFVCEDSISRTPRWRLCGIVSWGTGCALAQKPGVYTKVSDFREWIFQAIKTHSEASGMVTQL
T2 sequence (P05981 1-162 partner limits assumed): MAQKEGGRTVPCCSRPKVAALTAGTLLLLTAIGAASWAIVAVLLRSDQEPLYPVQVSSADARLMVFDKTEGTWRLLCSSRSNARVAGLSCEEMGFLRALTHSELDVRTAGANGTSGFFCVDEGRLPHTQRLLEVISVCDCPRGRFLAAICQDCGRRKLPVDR

Row | Relative efficiency of 30-mer peptide cleavage by thrombin (Thrombin) | Relative efficiency of cleavage by hepsin (Hepsin) | Relative efficiency of 30-mer peptide cleavage by CTSL1 (CTSL1 [1]) | Cleavage of motif by FAPα (FAPα) | Sequence | Cell-associated activity, MC38 vs other cell lines ([2]; cell lysates) | Ratio of cleavage in tumor vs control cell lines, cell lysates ([2]; cell lysates assayed neat) | Cleavage activity detected in cell lysates [2] | Secreted activity in conditioned media, steady-state kinetics [3] | Substrate cleavage activity, CT26-MMP9+ cell line ([4]; end-point screen) | Substrate cleavage activity, MC38 and CT26 parental cell lines ([4]; end-point screen) | Substrate cleavage activity, control myofibroblast cell line ([4]; end-point screen) | −1 site product formation by CTSL1 (CTSL1 [1]; matched 30-mer peptides SEQ ID NO: 207 (CTSL1_1) and 219 (CTSL1_2)) | Cleavage of 8-mer FRET substrate by CTSL1 (CTSL1 [5]) | Cell-associated activity in myofibroblasts ([2]; cell lysates) | Activity in three tumor cell lines over myofibroblast cell line, cell lysates ([2]; cell lysates assayed neat) | Secreted activity in myofibroblast conditioned media, steady-state kinetics ([3]; myofibroblast) | Substrate cleavage activity in the end-point screen [4]
1 | cleaved at lower efficiency | slightly higher hepsin susceptibility | lower CTSL1 activity |  | RGGGPAGLYAQPLAQKLKSSALFKSSFPGG [Alu30-15] |  |  |  |  |  |  |  |  |  |  |  |  | 
2 |  |  |  |  | ALFKSSFP (also: Mca fluorophore and Dnp quencher, places not given here) [CTSL1_1, FRET substrate with Mca fluorophore and Dnp quencher] | significantly greater in MC38 cells over the myofibroblast, CT26 parental, and CT26-MMP9+ cells | ~1 × | detected in all of the cell lysates | no measurable activity above background | undetectable activity | low activity | undetectable activity | had a −1 site product | highly efficiently |  |  |  | 
3 |  |  |  | able to cleave | PGGPAGIG (also: Mca fluorophore and Dnp quencher, places not given here) [FAPα_1, FRET substrate with Mca fluorophore and Dnp quencher] |  |  | detected in all four cell lines | lower activity than that associated with the cell pellet |  |  |  |  |  | did have cell-associated activity | 2 fold | no measurable secreted activity | very low, but was still detected in all three tumor cell lines

— patent publication US11739132B2, “Separation moieties and methods of use thereof” (Werewolf Therapeutics, Inc., priority 2019, dated 2023)
